# Results reported in patent publication US20040204486A1, “Anandamide and structurally related lipids as vanilloid receptor modulators” (priority 2000, published 2004).
# Like-named read-outs stand apart in the source and are kept apart here. No end group written: not given here.
# B1: α-latrotoxin (protein, UniProt P23631 21-1199, looked up)
# Alpha-latrotoxin-Lt1a: EGEDLTLEEKAEICSELELQQKYVDIASNIIGDLSSLPIAGKIAGTIAAAAMTATHVASGRLDIEQTLLGCSDLPFDQIKEVLENRFNEIDRKLDSHSAALEEITKLVEKSISVVEKTRKQMNKRFDEVMKSIQDAKVSPIISKINNFARYFDTEKERIRGLKLNDYILKLEEPNGILLHFKESRTPTDDSLQAPLFSIIEEGYAVPKSIDDELAFKVLYALLYGTQTYVSVMFFLLEQYSFLANHYYEKGYLEKYDEYFNSLNNVFLDFKSSLVGTGTSNNEGLLDRVLQVLMTVKNSEFLGLEKNGVDEMLNEKINLFNKIKEEIEGKQKMTLSETPENFAQISFDKDITTPIGDWRDGREVRYAVQYASETLFSKISHWSDPVSVREKACPTLRMPVDQTRRNVLVFRKFDSSKPQLVGEITPYLSNFIDIDRDLYNAASNPDSAVGFKEFTKLNYDGANIRATFDHGRTVFHAAAKSGNDKIMFGLTFLAKSTELNQPDKKGYTPIHVAADSGNAGIVNLLIQRGVSINSKTYHFLQTPLHLAAQRGFVTTFQRLMESPEININERDKDGFTPLHYAIRGGERILEAFLNQISIDVNAKSNTGLTPFHLAIIKNDWPVASTLLGSKKVDINAVDENNITALHYAAILGYLETTKQLINLKEINANVVSSPGLLSALHYAILYKHDDVASFLMRSSNVNVNLKALGGITPLHLAVIQGRKQILSLMFDIGVNIEQKTDEKYTPLHLAAMSKYPELIQILLDQGSNFEAKTNSGATPLHLATFKGKSQAALILLNNEVNWRDTDENGQMPIHGAAMTGLLDVAQAIISIDATVVDIEDKNSDTPLNLAAQNSHIDVIKYFIDQGADINTRNKKGLAPLLAFSKKGNLDMVKYLFDKNANVYIADNDGMNFFYYAVQNGHLNIVKYAMSEKDKFEWSNTDNNRRDECPNEECAISHFAVCDAVQFDRIEIVKYFVGTLGNFAICGPLHQAARYGHLDIVKYLVEEEFLSVDGSKTDTPLCYASENGHFTVVQYLVSNGAKVNHDCGNGMTAIDKAITKNHLQVVQFLAANGVDFRRKNSRGTTPFLTAVAENALHIAEYLIREKRQDININEQNVDKDTALHLAVYYKNLQMIKLLIKYGIDVTIRNAYDKTALDIAIDAKFSNIVEYLKTKSGKFRR
# Tests used:
# rat hepatic artery = assay: Recording of tension: relaxation of isolated rat hepatic artery contracted with phenylephrine; conditions: for EC50: read-out: pEC50 of relaxation (converted); for effect on anandamide-induced relaxation / effect on AM404-induced relaxations: capsaicin 10 μM pre-treatment; for effect on anandamide-induced relaxation: 8-37 CGRP 2 μM; for effect on AM404-induced relaxations: 8-37 CGRP 3 μM, SR141716A 0.3 μM; for vasodilator response (relaxation): α-latrotoxin 1 nM
# [1] = system: guinea pig basilar artery; assay: Recording of tension: relaxation of isolated guinea pig basilar artery contracted with prostaglandin F2α; conditions: for effect on anandamide-induced relaxation: capsaicin 10 μM pre-treatment, 8-37 CGRP 2 μM; for Emax / EC50: Cavia porcellus; for Emax: read-out: Emax of relaxation, guinea pig basilar artery; for EC50: read-out: pEC50 of relaxation, guinea pig basilar artery (converted)
# rat mesenteric artery = assay: Recording of tension: relaxation of isolated rat mesenteric artery contracted with phenylephrine; conditions: for effect on relaxant effects of 1-arachidonylglycerol and 2-arachidonylglycerol: rat mesenteric arteries, capsazepine 1 μM; for effect on relaxant effects of 1-arachidonylglycerol and 2-arachidonylglycerol / effect on anandamide-induced relaxation: capsaicin 10 μM pre-treatment; for effect on anandamide-induced relaxation: 8-37 CGRP 2 μM
# [2] = system: CGRP release from perivascular sensory nerves; assay: Measurement of CGRP release from rat hepatic artery segments (radioimmunoassay)
# Experimental: Measurement of CGRP and cyclic AMP.
# After 10 minutes the segments were removed and the physiological salt solution was evaporated.
# vanilloid receptors = target: T1, vanilloid receptors (Rattus norvegicus, UniProt O35433); assay: Schild analysis of capsazepine antagonism of relaxation in rat hepatic artery; conditions: for slope of the Schild regression line: mean±SEM; for Kb: pA2 (Schild plot)
# T1 construct: To determine whether native vanilloid receptors might be involved in the action of anandamide; from tissue; host or cells: hepatic artery ring segments from female Wistar-Hannover rats
# T1 sequence (O35433 whole entry): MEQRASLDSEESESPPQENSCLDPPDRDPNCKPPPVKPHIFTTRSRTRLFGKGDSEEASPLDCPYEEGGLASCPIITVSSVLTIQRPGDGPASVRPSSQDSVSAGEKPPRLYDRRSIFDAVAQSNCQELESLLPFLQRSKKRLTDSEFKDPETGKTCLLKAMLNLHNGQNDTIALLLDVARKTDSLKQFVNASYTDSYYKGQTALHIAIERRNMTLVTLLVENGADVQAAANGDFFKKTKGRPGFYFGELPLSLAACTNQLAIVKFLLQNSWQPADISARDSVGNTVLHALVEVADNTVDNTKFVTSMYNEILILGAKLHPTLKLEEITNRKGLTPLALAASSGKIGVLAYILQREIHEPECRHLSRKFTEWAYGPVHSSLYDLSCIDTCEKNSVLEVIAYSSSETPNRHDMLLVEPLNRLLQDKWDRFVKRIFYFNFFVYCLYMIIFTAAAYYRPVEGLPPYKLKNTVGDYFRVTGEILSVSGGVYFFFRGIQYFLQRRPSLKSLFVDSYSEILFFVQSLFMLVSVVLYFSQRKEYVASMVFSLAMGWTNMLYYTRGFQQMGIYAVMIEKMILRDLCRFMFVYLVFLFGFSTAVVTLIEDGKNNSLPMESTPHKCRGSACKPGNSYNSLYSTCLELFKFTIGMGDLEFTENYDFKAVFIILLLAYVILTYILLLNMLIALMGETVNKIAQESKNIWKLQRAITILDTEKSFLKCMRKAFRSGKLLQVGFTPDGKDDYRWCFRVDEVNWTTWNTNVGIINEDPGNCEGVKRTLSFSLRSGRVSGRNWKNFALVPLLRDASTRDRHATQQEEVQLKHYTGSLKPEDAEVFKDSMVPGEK
# Experimental: Recording of tension. Experiments were performed on hepatic (400 μm outer diameter) and mesenteric (200 μm outer diameter) arteries from female Wistar-Hannover rats (200-250 g) and on basilar arteries (300 μm outer diameter) from male guinea pigs. […] All experiments were performed in the presence of N^G-nitro-L-arginine (0.3 mM) and indomethacin (10 μM) to eliminate any contribution of nitric oxide and cyclooxygenase products, respectively (refs. 38, 23). Relaxant responses were studied in preparations contracted with phenylephrine (rat hepatic and mesenteric arteries) and prostaglandin F2α (guinea pig basilar artery) (refs. 38, 43). When stable contractions were obtained, agonists were added cumulatively to determine concentration-response relationships.
# Some preparations were pre-treated with capsaicin for 1 hour followed by washout for 20 minutes. Each vessel segment was exposed to only one treatment. The experiments were carried out with the approval of the local ethics committee.
# Calculations and statistics. Relaxations are expressed as percentage reversal of the prevailing contraction (100% indicates a complete reversal to basal tension). […] Data are presented as means±s.e.mean (vertical lines in figures), and n indicates the number of vascular segments (animals) examined. pA2 and slope values of the Shild plots were estimated according to the Jackknife method (ref. 46). Statistical analysis was performed by using Student's t-test (two-tailed), Mann-Whitney U-test, or analysis of variance (ANOVA) on log transformed values (cyclic AMP) followed by Bonferroni Dunn's post hoc test (Statview 4.12). Statistical significance was accepted when P<0.05.
# cyclic AMP content = assay: Measurement of cyclic AMP content in rat hepatic artery segments
# [3] = Rattus norvegicus, control (agonist alone)
# [4] = Rattus norvegicus, in presence of SR141716A (0.3 μM)
# [5] = in presence of SR141716A (0.3 μM)
# [6] = rat mesenteric artery, capsazepine 3 μM
# [7] = guinea pig basilar artery, capsazepine 3 μM
# [8] = guinea pig basilar artery, 10 μM
# [9] = segments pre-treated with capsaicin (10 μM)
molecule,measurement,setting,value
"Cc1c(C(=O)c2cccc3ccccc23)c2cccc3c2n1[C@H](CN1CCOCC1)CO3 [WIN 55,212-2]",relaxation,rat hepatic artery,did not produce any relaxation
same,relaxation,[1]; guinea pig basilar artery,did not produce any relaxation
CCCCCCCCCCCCCCCC(=O)NCCO [palmitylethanolamide],relaxation,rat hepatic artery,did not produce any relaxation
same,relaxation,[1]; guinea pig basilar artery,did not produce any relaxation
CCCCC/C=C\C/C=C\C/C=C\C/C=C\CCCC(=O)N[C@H](C)CO [methanandamide],Emax,rat hepatic artery; [3],99 ± 1%
same,EC50,rat hepatic artery; [3],316 nM
same,Emax,rat hepatic artery; [4],99 ± 1%
same,Emax of relaxation,rat hepatic artery; control (agonist alone),97±1%
same,pEC50 of relaxation,rat hepatic artery; control (agonist alone),6.53±0.08
same,pEC50 of relaxation,rat hepatic artery; [5],6.30±0.04
Oc1cc2c(cc1O)CN(C(=S)NCCc1ccc(Cl)cc1)CCC2 [capsazepine],effect on anandamide-induced relaxation,rat hepatic artery; capsazepine 3 μM,significantly inhibited
same,effect on AM404-induced relaxations,rat hepatic artery; capsazepine 3 μM,significant right-ward shift
same,effect on capsaicin-induced relaxation,rat hepatic artery; capsazepine 3 μM,significantly inhibited
same,effect on relaxant effects of 1-arachidonylglycerol and 2-arachidonylglycerol,rat mesenteric artery,inhibited
same,effect on anandamide-induced relaxation,rat mesenteric artery; [6],significantly inhibited
same,effect on capsaicin-induced relaxation,rat mesenteric artery; [6],significantly inhibited
same,effect on anandamide-induced relaxation,[1]; [7],significantly inhibited
same,effect on capsaicin-induced relaxation,[1]; [7],significantly inhibited
same,effect on anandamide-induced release of CGRP,[2]; capsazepine 10 μM,inhibited
same,slope of the Schild regression line,vanilloid receptors; capsaicin as agonist,2.12±0.36
same,slope of the Schild regression line,vanilloid receptors; methanandamide as agonist,2.41±0.32
same,Kb,vanilloid receptors; capsaicin as agonist,575 nM
same,Kb,vanilloid receptors; methanandamide as agonist,457 nM
CCCCC/C=C\C/C=C\C/C=C\C/C=C\CCCCOCC(O)CO (stereo not drawn) [1-arachidonylglycerol],vasodilator action,rat mesenteric artery; rat mesenteric arteries contracted with phenylephrine,vasodilators
"CCCCC/C=C\C/C=C\C/C=C\C/C=C\CCCC(=O)NCCO [anandamide, arachidonylethanolamide]",relaxation at 10 μM,rat hepatic artery; 10 μM,completely relaxed
same,Emax,rat hepatic artery; [3],100 ± 1%
same,EC50,rat hepatic artery; [3],355 nM
same,Emax,rat hepatic artery; [4],97 ± 1%
same,pEC50 of relaxation,rat hepatic artery; control (agonist alone),6.49±0.01
same,pEC50 of relaxation,rat hepatic artery; [5],6.44±0.12
same,Emax,[1]; control (agonist alone),92 ± 3%
same,Emax,[1]; [5],91 ± 2%
same,EC50,[1]; control (agonist alone),955 nM
same,EC50,[1]; [5],776 nM
same,relaxation at 10 μM,[1]; [8],completely relaxed
same,release of CGRP,"[2]; anandamide 10 μM, 10 minute exposure",significant release of CGRP
same,release of CGRP after capsaicin pre-treatment,[2]; [9],absent
same,tissue content of cyclic AMP,"cyclic AMP content; anandamide 10 μM or CGRP 10 nM, 5 minutes",increase in tissue content of cyclic AMP
same,tissue content of cyclic AMP after capsaicin pre-treatment,cyclic AMP content; [9],absent
"8-37 CGRP: selective CGRP receptor antagonist (VTHRLAGLLSRSGGVVKNNFVPTNVGSKAF; ends and bridges not checked; UniProt P06881 90-119, looked up, fragment)",effect on anandamide-induced relaxation,rat hepatic artery; capsazepine 3 μM,inhibited
same,effect on AM404-induced relaxations,rat hepatic artery; capsazepine 3 μM,abolished
same,effect on anandamide-induced relaxation,rat mesenteric artery; [6],inhibited
same,effect on anandamide-induced relaxation,[1]; [7],inhibited
NCCO [ethanolamine],relaxation at 10 μM,rat hepatic artery; 10 μM,inactive
same,relaxation at 10 μM,[1]; [8],inactive
CCCCCCC(C)(C)c1cc(O)c2c(c1)OC(C)(C)[C@@H]1CC=C(CO)C[C@@H]21 [HU 210],relaxation,rat hepatic artery,did not produce any relaxation
same,relaxation,[1]; guinea pig basilar artery,did not produce any relaxation
COc1cc(CNC(=O)CCCC/C=C/C(C)C)ccc1O [capsaicin],relaxation at 10 μM,rat hepatic artery; 10 μM,completely relaxed
same,Emax,rat hepatic artery; [3],99 ± 1%
same,Emax,"rat hepatic artery; Rattus norvegicus, in presence of SR141716A (10 μM)",90 ± 3%
same,effect on anandamide-induced relaxation,rat hepatic artery; capsazepine 3 μM,abolished
same,effect on AM404-induced relaxations,rat hepatic artery; capsazepine 3 μM,abolished
same,EC50,rat hepatic artery; control (agonist alone),4.27 nM
same,pEC50 of relaxation,rat hepatic artery; in presence of SR141716A (10 μM),7.42±0.12
same,effect on relaxant effects of 1-arachidonylglycerol and 2-arachidonylglycerol,rat mesenteric artery,abolished
same,effect on anandamide-induced relaxation,rat mesenteric artery; [6],abolished
same,relaxation at 10 μM,[1]; [8],completely relaxed
same,effect on anandamide-induced relaxation,[1]; [7],abolished
CCCCC/C=C\C/C=C\C/C=C\C/C=C\CCCC(=O)O [arachidonic acid],relaxation at 10 μM,rat hepatic artery; 10 μM,inactive
same,relaxation at 10 μM,[1]; [8],inactive
"CCCCCCC(C)(C)c1ccc([C@@H]2C[C@H](O)CC[C@H]2CCCO)c(O)c1 [CP 55,940]",relaxation at 10 μM,rat hepatic artery; 10 μM,significant relaxation
same,relaxation after pre-treatment with capsaicin,"rat hepatic artery; 10 μM, capsaicin (10 μM) pre-treatment",resistant to pre-treatment with capsaicin
same,relaxation at 10 μM,[1]; [8],significant relaxation
same,relaxation after pre-treatment with capsaicin,"[1]; guinea pig basilar artery, 10 μM, capsaicin (10 μM) pre-treatment",resistant to pre-treatment with capsaicin
"Cc1c(C(=O)NN2CCCCC2)nn(-c2ccc(Cl)cc2Cl)c1-c1ccc(Cl)cc1.Cl [SR141716A, N-(piperidin-1-yl)-5-(4-chlorophenyl)-1-(2,4-dichlorophenyl)-4-methyl-1H-pyrazole-3-carboxamide hydrochloride]",effect on AM404-induced relaxations,rat hepatic artery; capsazepine 3 μM,without effect
B1,vasodilator response (relaxation),rat hepatic artery; CGRP 8-37 (2 μM),−8±3%
same,vasodilator response (relaxation),rat hepatic artery; capsaicin pre-treatment,−16±8%
same,vasodilator response (relaxation),rat hepatic artery; capsazepine (3 μM),93±2%
same,vasodilator response (relaxation),rat hepatic artery; control,98±1%
